Patent US10596127B2, “Composition for reducing the frequency of urination, method of making and use thereof” (WELLESLEY PHARMACEUTICALS, LLC, priority 2013, dated 2020)

Tests used:
[1] = tested on: COX2 expression by mouse bladder cells; test: Cell-based ELISA of total COX2 in mouse bladder cells; settings: for induction of COX2 responses by analgesic alone: 5 μM or 50 μM, 24-hour cultures, no stimulus; for effect on the effect of LPS on COX2 levels: LPS (1 μg/ml), analgesic at either 5 μM or 50 μM
Description: Bladder cells were removed from euthanized animals C57BL/6 mice (8-12 weeks old) and cells were isolated by enzymatic digestion followed by purification on a Percoll gradient. Briefly, bladders from 10 mice were minced with scissors to fine slurry in 10 ml of digestion buffer (RPMI 1640, 2% fetal bovine serum, 0.5 mg/ml collagenase, 30 μg/ml DNase). Bladder slurries were enzymatically digested for 30 minutes at 37° C. Undigested fragments were further dispersed through a cell-trainer. The cell suspension was pelleted and added to a discontinue 20%, 40% and 75% Percoll gradient for purification on mononuclear cells. Each experiment used 50-60 bladders.
After washes in RPMI 1640, bladder cells were resuspended RPMI 1640 supplemented with 10% fetal bovine serum, 15 mM HEPES, 2 mM L-glutamine, 100 U/ml penicillin, and 100 μg/ml of streptomycin and seeded in clear-bottom black 96-well cell culture microculture plates at a cell density of 3×10^4 cells per well in 100 μl. Cells were cultured at 37° C. in a 5% CO2 atmosphere.
Bladder cells were treated with analgesic solutions (50 well) either alone or together with carbachol (10-Molar, 50 μl/well), as an example of non-inflammatory stimuli, or lipopolysaccharide (LPS) of Salmonella typhimurium (1 μg/ml, 50 μl/well), as an example of […] stimuli. When no other effectors were added to the cells, 50 μl of RPMI 1640 without fetal bovine serum were added to the wells to adjust the final volume to 200 μl.
After 24 hours of culture, 150 μl of culture supernatants were collected, spun down for 2 min at 8,000 rpm at 4° C. to remove cells and debris and stored at −70° C. for analysis of Prostaglandin E2 (PGE2) responses by ELISA. Cells were fixed, permeabilized and blocked for detection of Cyclooxygenase-2 (COX2) using a fluorogenic substrate. In selected experiment cells were stimulated 12 hours in vitro for analysis of COX2 responses
COX2 responses were analyzed by a Cell-Based ELISA using Human/mouse total COX2 immunoassay (R&D Systems), following the instructions of the manufacturer. Briefly, after cells fixation and permeabilization, a mouse anti-total COX2 and a rabbit anti-total GAPDH were added to the wells of the clear-bottom black 96-well cell culture microculture plates. After incubation and washes, an HRP-conjugated anti-mouse IgG and an AP-conjugated anti-rabbit IgG were added to the wells. Following another incubation and set of washes, the HRP- and AP-fluorogenic substrates were added. Finally, a Victor® V multilabel plate reader (PerkinElmer) was used to read the fluorescence emitted at 600 nm (COX2 fluorescence) and 450 nm (GAPDH fluorescence). Results are expressed as relative levels of total COX2 as determined by relative fluorescence unit (RFUs) and normalized to the housekeeping protein GAPDH.

[2] = tested on: expression of co-stimulatory molecules by Raw 264 macrophage cells; test: Flow cytometry of co-stimulatory molecules CD40 and CD80 on macrophages treated with analgesic, with or without LPS; format: cell-based, Murine; settings: for effect on basal expression of co-stimulatory molecules CD40 and CD80 by macrophages: 5 × 10^5, 5 × 10^4, 5 × 10^3, 5 × 10^2, 50 and 5 nM
Description: Murine RAW264.7 or J774 macrophage cells (obtained from ATCC) were used in this study. Cells were maintained in a culture medium containing RPMI 1640 supplemented with 10% fetal bovine serum (FBS), 15 mM HEPES, 2 mM L-glutamine, 100 U/ml penicillin, and 100 μg/ml of streptomycin. Cells were cultured at 37° C. in a 5% CO2 atmosphere and split (passages) once a week.
RAW264.7 macrophage cells were seeded in 96-well plates at a cell density of 1.5×10^5 cells per well in 100 μl of the culture medium. […] Briefly, the analgesics were dissolved in FBS-free culture medium (i.e., RPMI 1640 supplemented with 15 mM HEPES, 2 mM L-glutamine, 100 U/ml penicillin, and 100 μg/ml of streptomycin), and diluted to desired concentrations by serial dilution with the same medium. For cells treated with analgesic in the absence of LPS, 50 μl of analgesic solution and 50 μl of FBS-free culture medium were added to each well. For cells treated with analgesic in the presence of LPS, 50 μl of analgesic solution and 50 μl of LPS (from Salmonella typhimurium) in FBS-free culture medium were added to each well. All conditions were tested in duplicates.
After 24 or 48 hours of culture, 150 μl of culture supernatants were collected, spun down for 2 min at 8,000 rpm at 4° C. to remove cells and debris and stored at −70° C. for analysis of cytokine responses by ELISA. The cells were collected and washed by centrifugation (5 min at 1,500 rpm at 4° C.) in 500 μl of Phosphate buffer (PBS). Half of the cells were then snap frozen in liquid nitrogen and stored at −70° C. The remaining cells were stained with fluorescent monoclonal antibodies and analyzed by flow cytometry.
For flow cytometry analysis, macrophages were diluted in 100 μl of FACS buffer (phosphate buffered saline (PBS) with 2% bovine serum albumin (BSA) and 0.01% NaN3) and stained 30 min at 4° C. by addition of FITC-conjugated anti-CD40, PE-conjugated anti-CD80, PE-conjugated anti-CD86 antibody, anti MHC class II (I-A^d) PE (BD Bioscience). Cells were then washed by centrifugation (5 min at 1,500 rpm at 4° C.) in 300 μl of FACS buffer. After a second wash, cells were re-suspended in 200 μl of FACS buffer and the percentage of cells expressing a given marker (single positive), or a combination of markers (double positive) were analyzed with the aid of an Accuri C6 flow cytometer (BD Biosciences).

[3] = LPS (1 μg/ml) plus analgesic 5 μM, LPS alone 420 ± 26, unstimulated 158 ± 18
[4] = LPS (1 μg/ml) plus analgesic 50 μM, LPS alone 420 ± 26, unstimulated 158 ± 18
[5] = analgesic alone, 5 nM, negative control 20.6
[6] = analgesic alone, 50 nM, negative control 20.6
[7] = analgesic alone, 500 nM, negative control 20.6
[8] = analgesic alone, 5 × 10^3 nM, negative control 20.6
[9] = analgesic alone, 5 × 10^4 nM, negative control 20.6
[10] = analgesic alone, 5 × 10^5 nM, negative control 20.6
[11] = analgesic alone, 5 × 10^6 nM, negative control 20.6
[12] = analgesic plus LPS, analgesic 5 nM, LPS 5 ng/ml alone 77.8
[13] = analgesic plus LPS, analgesic 50 nM, LPS 5 ng/ml alone 77.8
[14] = analgesic plus LPS, analgesic 500 nM, LPS 5 ng/ml alone 77.8
[15] = analgesic plus LPS, analgesic 5 × 10^3 nM, LPS 5 ng/ml alone 77.8
[16] = analgesic plus LPS, analgesic 5 × 10^4 nM, LPS 5 ng/ml alone 77.8
[17] = analgesic plus LPS, analgesic 5 × 10^5 nM, LPS 5 ng/ml alone 77.8
[18] = analgesic plus LPS, analgesic 5 × 10^6 nM, LPS 5 ng/ml alone 77.8

Structure (SMILES)	induction of COX2 responses by analgesic alone [1]	Total COX2 levels (Normalized RFUs) [1, 3] [Normalized RFUs]	Total COX2 levels (Normalized RFUs) [1, 4] [Normalized RFUs]	effect on the effect of LPS on COX2 levels [1]	effect on expression of the co-stimulatory molecules at the highest dose ([2]; 5 × 10^6 nM)	effect on basal expression of co-stimulatory molecules CD40 and CD80 by macrophages [2]	% Positive CD40+CD80+ [2, 5] [%]	% Positive CD40+CD80+ [2, 6] [%]	% Positive CD40+CD80+ [2, 7] [%]	% Positive CD40+CD80+ [2, 8] [%]	% Positive CD40+CD80+ [2, 9] [%]	% Positive CD40+CD80+ [2, 10] [%]	% Positive CD40+CD80+ [2, 11] [%]	% Positive CD40+CD80+ [2, 12] [%]	% Positive CD40+CD80+ [2, 13] [%]	% Positive CD40+CD80+ [2, 14] [%]	% Positive CD40+CD80+ [2, 15] [%]	% Positive CD40+CD80+ [2, 16] [%]	% Positive CD40+CD80+ [2, 17] [%]	% Positive CD40+CD80+ [2, 18] [%]	also measured
C[N+](C)(C)CCOC(N)=O [Carbachol, carbachol]	–	–	–	–	–	–	–	–	–	–	–	–	–	–	–	–	–	–	–	–	Total COX2 levels (Normalized RFUs) ([1]; stimulus alone, no analgesic (LPS 1 μg/ml, Carbachol (mM)), unstimulated 158 ± 18): 149 ± 21 Normalized RFUs; Total COX2 levels (Normalized RFUs) ([1]; stimulus alone, no analgesic (LPS 1 μg/ml, Carbachol (mM)), unstimulated 158 ± 18, listed as carbachol): no significant effect
COc1ccc2cc([C@H](C)C(=O)O)ccc2c1 [Naproxen]	none of the analgesics tested induced COX2 responses	284 ± 11	279 ± 23	suppress	enhance	inhibit	5.2	6.8	7.2	6.9	7.7	9.6	37	73	72	68.8	71.0	77.1	74.1	66.0	–
CC(=O)Oc1ccccc1C(=O)O [Aspirin, Acetylsalicylic acid]	none of the analgesics tested induced COX2 responses	240 ± 17	258 ± 21	suppress	enhance	inhibit	7.5	10.5	8	8.3	10.3	11	44	65.7	70.1	75.8	74.7	78.7	80	84.5	–
CC(=O)Nc1ccc(O)cc1 [Acetaminophen, N-acetyl-para-aminophenol]	none of the analgesics tested induced COX2 responses	275 ± 12	243 ± 15	suppress	enhance	inhibit	7.5	9.5	8.3	9.8	12	18	63	62.1	66.2	66.8	68.8	72.4	82.7	95.1	–
CC(C)Cc1ccc(C(C)C(=O)O)cc1 (stereo not shown) [Ibuprofen, ibuprofen]	–	–	–	–	enhance	inhibit	5.8	4.9	6.0	7.9	7.7	6.4	–	60.3	63.7	71.1	72.9	77.9	67	–	–
